Data as given in ChEMBL document CHEMBL1154786, “Analgesic, anticonvulsant and anti-inflammatory activities of some synthesized benzodiazipine, triazolopyrimidine and bis-imide derivatives” (Eur J Med Chem, 2009).
The source made the active and inactive calls. No cut-off for these calls is given here.

Legend:
[1] = Acute toxicity in rat; assay type: organism-based; details: in vivo
Mus musculus [2] = assay: Analgesic activity in Webster mouse assessed as normal reaction time at 5 mg/kg, sc after 10-120 mins by hot plate assay relative to valdecoxib; assay type: functional; details: route subcutaneous
Mus musculus [3] = assay: Anticonvulsant activity in Webster mouse assessed as protection against yohimbine-HCl-induced clonic seizure at 5 mg/kg, ip administered 30 mins before yohimbine-HCl challenge; assay type: functional
Mus musculus [4] = assay: Anticonvulsant activity in Webster mouse assessed as protection against yohimbine-HCl-induced clonic seizure at 5 mg/kg, ip administered 30 mins before yohimbine-HCl challenge relative to carbamazepine; assay type: functional
Rattus norvegicus [5] = assay: Antiinflammatory activity in albino rat assessed as protection against carrageenan-induced paw edema at 25 mg/kg, po administered 1 hr before carrageenan challenge measured after 4 hrs; assay type: functional
Rattus norvegicus [6] = assay: Antiinflammatory activity in albino rat assessed as protection against carrageenan-induced paw edema at 50 mg/kg, po administered 1 hr before carrageenan challenge measured after 4 hrs; assay type: functional
Rattus norvegicus [7] = assay: Antiinflammatory activity in albino rat assessed as inhibition of increase in plasma PGE2 level at 25 mg/kg, po by EIA; assay type: functional
Rattus norvegicus [8] = assay: Antiinflammatory activity in albino rat assessed as inhibition of increase in plasma PGE2 level at 50 mg/kg, po by EIA; assay type: functional

Structure (SMILES)	LD50 [1] [mg/kg]	Activity (Mus musculus [2]) [%]	ED50 (Mus musculus [3])	Activity (Mus musculus [4])	Activity (Rattus norvegicus [5]) [%]	Activity (Rattus norvegicus [6]) [%]	inhibition in vivo at 25 mg/kg (Rattus norvegicus [7]) [%]	inhibition in vivo at 50 mg/kg (Rattus norvegicus [8]) [%]	ED50 (Mus musculus [3]; route intraperitoneal) [mg/kg]	Activity (Mus musculus [4]; route intraperitoneal)
CC1=Cc2[nH]c(=S)nc(C)c2C(c2ccccc2)C1 (stereo not given)	1.87	60								
CC1=CC(c2ccccc2)N=C(NN2C(=O)c3cccc4cccc(c34)C2=O)N1 (stereo not given)	1.85	60	inactive	inactive	87.8	93.15	88.7	95.6		
CC1=CC(c2ccccc2)N=C(Nn2c(=O)c3cc4c(=O)n(NC5=NC(c6ccccc6)C=C(C)N5)c(=O)c4cc3c2=O)N1 (stereo not given)	1.68									
CC1=CC2=NC(=S)NC(=O)C2C(c2ccccc2)C1 (stereo not given)	1.88	130			74.38	85.24	72.1	82.8	15	2.04
CC1=Cc2c(c(=O)[nH]n2-c2ccccc2)C(c2ccccc2)C1 (stereo not given)	1.86	60	inactive	inactive	63.9	64.8	54.9	67		
CC(=O)C1C(=O)C=C(C)CC1c1ccccc1 (stereo not given)	1.72									
CC1=Cc2c(c(C)nn2-c2ccccc2)C(c2ccccc2)C1 (stereo not given)	1.92									
CC1=CC(c2ccccc2)Nc2n[nH]c(=S)n21 (stereo not given)	1.8		inactive	inactive		42.38		66.8		
CC1=CC(c2ccccc2)N=C(n2cc(C)c(C)n2)N1 (stereo not given)	1.79									
CC1=CC(c2ccccc2)Nc2nnc(C)n21 (stereo not given)	1.97									
NC(=O)N1c2ccccc2C=Cc2ccccc21 [CARBAMAZEPINE]									28	
CC1=CC(c2ccccc2)NC(NN)N1 (stereo not given)	1.88									
CC1=CC(c2ccccc2)NC(=S)N1CN1CCOCC1 (stereo not given)	1.69	60			85.84	98.41	90.3		13	2.3
C[C@]12C=CC(=O)C=C1CC[C@@H]1[C@@H]2[C@@H](O)C[C@@]2(C)[C@H]1CC[C@]2(O)C(=O)CO [PREDNISOLONE]	1.62				81	92	77	91		
CC1=CC(c2ccccc2)N=C(NN2C(=O)c3ccc4c5c(ccc(c35)C2=O)C(=O)N(NC2=NC(c3ccccc3)C=C(C)N2)C4=O)N1 (stereo not given)	1.78	60			48.5	51.6	58.8	65	15	1.8
CC1=CC(c2ccccc2)NC(=S)N1 (stereo not given)	1.8	130			84.52	96.1	78.4	93.5	32	1
CC1=CC(c2ccccc2)Nc2ncnn21 (stereo not given)	1.75	60			85.25	96.05	80.7	94.6	10	2.51
CCOC(=O)C1C(=O)C=C(C)CC1c1ccccc1 (stereo not given)	1.74	60				60.26		54.5	50	0.68
